According to patent US11896573B2, “Pharmaceutical compositions and pharmacokinetics of a gamma-hydroxybutyric acid derivative” (priority 2020, dated 2024):

Assay: Single ascending dose study, plasma pharmacokinetics of Compound (1) and GHB
Type: in vivo, human
Details: fasted
Experimental: The plasma concentrations of Compound (1) and GHB in plasma in healthy human subjects were measured using liquid chromatography tandem mass-spectroscopy and evaluated using PHOENIX™ WINNONLIN® version 8.1 (Pharsight Corporation, USA) and MICROSOFT® EXCEL® (Microsoft Corporation, USA).
All randomized subjects who received Compound (1), with available pharmacokinetic (PK) data and without relevant deviations interfering with the PK evaluations, were included. Subjects who received only placebo were excluded from the PK population. In addition, the PK population was used for the summaries and analyses of all PK data.
A randomized, double-blind, single-center, single ascending dose study was undertaken to evaluate the safety, tolerability, and pharmacokinetics of Compound (1) and GHB in healthy subjects.
Compound (1) was administered to randomized healthy subjects at doses from 0.1 g to 7.25 g as an aqueous solution of Compound (1) in water. The subjects fasted for at least 10 hours overnight with clear liquids allowed prior to dosing and the subjects were fasted for 4 hours after dosing.
Plasma samples were obtained at various times following oral administration and the plasma concentrations of Compound (1) and GHB were measured.

[1] = Cohort 1 (0.10 g) single oral dose
[2] = Cohort 2 (0.50 g) single oral dose
[3] = Cohort 3 (1.50 g) single oral dose
[4] = Cohort 4 (3.00 g) single oral dose
[5] = Cohort 5 (4.50 g) single oral dose
[6] = Cohort 6 (6.00 g) single oral dose

Compound: CC(C)[C@H](N)C(=O)OCCCC(=O)O [Compound (1), 4-((L-valyl)oxy)butanoic acid]
- Compound (1) CL/F, Max [1]: 554 L/h
- Compound (1) CL/F, Mean [1]: 420 L/h
- Compound (1) CL/F, Median [1]: 408 L/h
- Compound (1) CL/F, Min [1]: 316 L/h
- Compound (1) plasma AUC0-inf, Max [1]: 316 ng·h/mL
- Compound (1) plasma AUC0-inf, Min [1]: 180 ng·h/mL
- Compound (1) plasma AUC0-tlast, Max [1]: 315 ng·h/mL
- Compound (1) plasma AUC0-tlast, Min [1]: 180 ng·h/mL
- Compound (1) plasma Cmax, Max [1]: 669 ng/mL
- Compound (1) plasma Cmax, Min [1]: 265 ng/mL
- Compound (1) plasma t1/2, Max [1]: 0.92 h
- Compound (1) plasma t1/2, Min [1]: 0.48 h
- Compound (1) CL/F, Max [2]: 500 L/h
- Compound (1) CL/F, Mean [2]: 400 L/h
- Compound (1) CL/F, Median [2]: 396 L/h
- Compound (1) CL/F, Min [2]: 309 L/h
- Compound (1) plasma AUC0-inf, Max [2]: 1620 ng·h/mL
- Compound (1) plasma AUC0-inf, Min [2]: 1000 ng·h/mL
- Compound (1) plasma AUC0-tlast, Max [2]: 1610 ng·h/mL
- Compound (1) plasma AUC0-tlast, Min [2]: 998 ng·h/mL
- Compound (1) plasma Cmax, Max [2]: 2470 ng/mL
- Compound (1) plasma Cmax, Min [2]: 1160 ng/mL
- Compound (1) plasma Tmax, Max [2]: 1.50 h
- Compound (1) plasma t1/2, Max [2]: 1.33 h
- Compound (1) plasma t1/2, Min [2]: 0.71 h
- Compound (1) CL/F, Max [3]: 959 L/h
- Compound (1) CL/F, Mean [3]: 673 L/h
- Compound (1) CL/F, Median [3]: 553 L/h
- Compound (1) CL/F, Min [3]: 468 L/h
- Compound (1) plasma AUC0-inf, Max [3]: 3210 ng·h/mL
- Compound (1) plasma AUC0-inf, Min [3]: 1500 ng·h/mL
- Compound (1) plasma AUC0-tlast, Max [3]: 4040 ng·h/mL
- Compound (1) plasma AUC0-tlast, Min [3]: 1500 ng·h/mL
- Compound (1) plasma Cmax, Max [3]: 5530 ng/mL
- Compound (1) plasma Cmax, Min [3]: 2100 ng/mL
- Compound (1) plasma Tmax, Max [3]: 1.50 h
- Compound (1) plasma t1/2, Max [3]: 1.11 h
- Compound (1) plasma t1/2, Min [3]: 0.97 h
- Compound (1) CL/F, Max [4]: 545 L/h
- Compound (1) CL/F, Mean [4]: 413 L/h
- Compound (1) CL/F, Median [4]: 408 L/h
- Compound (1) CL/F, Min [4]: 318 L/h
- Compound (1) plasma AUC0-inf, Max [4]: 9430 ng·h/mL
- Compound (1) plasma AUC0-inf, Min [4]: 5500 ng·h/mL
- Compound (1) plasma AUC0-tlast, Max [4]: 9430 ng·h/mL
- Compound (1) plasma AUC0-tlast, Min [4]: 5500 ng·h/mL
- Compound (1) plasma Cmax, Max [4]: 15200 ng/mL
- Compound (1) plasma Cmax, Min [4]: 7440 ng/mL
- Compound (1) plasma t1/2, Max [4]: 1.54 h
- Compound (1) plasma t1/2, Min [4]: 0.78 h
- Compound (1) CL/F, Max [5]: 586 L/h
- Compound (1) CL/F, Mean [5]: 416 L/h
- Compound (1) CL/F, Median [5]: 389 L/h
- Compound (1) CL/F, Min [5]: 353 L/h
- Compound (1) plasma AUC0-inf, Max [5]: 12700 ng·h/mL
- Compound (1) plasma AUC0-inf, Min [5]: 7670 ng·h/mL
- Compound (1) plasma AUC0-tlast, Max [5]: 12700 ng·h/mL
- Compound (1) plasma AUC0-tlast, Min [5]: 7660 ng·h/mL
- Compound (1) plasma Cmax, Max [5]: 16700 ng/mL
- Compound (1) plasma Cmax, Min [5]: 6790 ng/mL
- Compound (1) plasma t1/2, Max [5]: 1.50 h
- Compound (1) plasma t1/2, Min [5]: 0.83 h
- Compound (1) CL/F, Max [6]: 423 L/h
- Compound (1) CL/F, Mean [6]: 340 L/h
- Compound (1) CL/F, Median [6]: 334 L/h
- Compound (1) CL/F, Min [6]: 232 L/h
- Compound (1) plasma AUC0-inf, Max [6]: 25800 ng·h/mL
- Compound (1) plasma AUC0-inf, Min [6]: 14200 ng·h/mL
- Compound (1) plasma AUC0-tlast, Max [6]: 25800 ng·h/mL
- Compound (1) plasma AUC0-tlast, Min [6]: 14200 ng·h/mL
- Compound (1) plasma Cmax, Max [6]: 22900 ng/mL
- Compound (1) plasma Cmax, Min [6]: 13200 ng/mL
- Compound (1) plasma t1/2, Max [6]: 1.64 h
- Compound (1) plasma t1/2, Min [6]: 0.79 h
